This is an account of results in article PMC7690861, “Topical Administration of Cannabidiol: Influence of Vehicle-Related Aspects on Skin Permeation Process” (Pharmaceuticals, 2020).

≈ marks a conversion by molar mass, not a printed value. Read-outs that look alike come from different tables or passages of the source. Marks after values point to notes of the source that are not given here.

A word on the solubility: it is how much of the substance goes into solution per volume.

On the set-up of series [1]: method as in Burke [29]. As to conditions: experimental; ref Burke [29]; cited from earlier work.
A short description of series [2]: Preliminary chemical stability of CBD in tested formulations (total impurities). Type of series: physicochemical. Particulars: over the preparation process and the permeation experiments; preliminary data. The text has this:
Evidence in the literature highlighted that CBD was quite unstable in a solution for a long period. Even if an in-depth investigation of the chemical stability of CBD loaded in the tested formulation has not been performed yet, preliminary data highlighted that CBD was stable over both the preparation process and the permeation experiments (total impurities < 2% of CBD assay). […] Further studies are needed to determine the long-term stability of the tested formulations.
HPLC analysis was run using an HP 1100 ChemStation system (Agilent Technologies Inc, USA), acetonitrile/phosphate buffer pH 3.0 (75/25, v/v) was used as mobile phase at a flow rate of 1.5 mL/min, injection volume was set at 20 μL. The UV detector was set at a wavelength of 215 nm. A reverse-phase C8 column (InertClone™, 5 μm, 150 × 4.6 mm; Phenomenex Inc, Torrance, USA) was used. The retention time of the CBD was 4.0 min. Two calibration curves were made in the overall range of 0.02–100 μg/mL.

For series [3] the following is noted: Fedors method; ref Minghetti et al. [26]; cited from earlier work.

Experimental for physchem: The equilibrium solubility of CBD in each of the above-mentioned solvent systems was determined by the shake-flask method. An excess quantity of the cannabinoid compound was added to 1 mL of each test solution in a glass vial. […] In the case of aqueous solutions, the supernatant fluid was then filtered (0.45 μm PP syringe filter) and properly diluted in methanol before being analyzed by HPLC. In the case of oily solutions, the supernatant fluid was filtered (0.45 μm PVDF syringe filter); then, 60 μL of the filtered solution was withdrawn and added to 5 mL of methanol; the mixture was vortexed for 1 min and allowed to stand for 1 min three times, then it was centrifuged (4000 rpm, 2 min); the supernatant fluid was sampled and properly diluted in methanol before being analyzed by HPLC. Each solubility value was calculated as the mean of three independent shake-flask experiments, considering any dilution factors and an extraction efficiency factor in case of oily solutions.

As to `CC(O)CO` (stereo not shown) [Propylene glycol], the “δ (solubility parameter)” value in series [1] is 14.80 ^d cal/cm^3.

In the series “physchem”, `C=C(C)[C@@H]1CCC(C)=C[C@H]1c1c(O)cc(CCCCC)cc1O` [CBD, Cannabidiol] showed a solubility at 24 h of 2240 ± 80 µg/mL (≈ 7.12 mM). In addition, in series [2], the Total impurities was < 2 % of CBD assay. Take O-acylglucosylceramide: the “δ (solubility parameter)” value in series [3] is given as 10.03 ^a cal/cm^3.
